Like-named read-outs stand apart in the source and are kept apart here.
How the values were obtained:
HUVECs = details: VEGF equivalent to 50 ng/mL through MNAs
Procedure: To develop a method for mimicking the crust and necrotic tissue covering chronic wounds, 12-well cell culture inserts were used and covered with […] of 3% (w/v) agarose solution […]. […] Similar techniques were applied for scratch assay with seeding HUVECs in the bottom of chamber covered by 2 mL basal media.
To assess the effectiveness of the released factors, a standard scratch assay was conducted. Wells of a 12-well plate were coated by Geltrex. After aspirating the Geltrex from the wells, 30,000 cells per well were seeded and cultured until a confluent monolayer formed in each well. The cells were cultured in basal media supplemented with 2% FBS for 6 hours. prior to the experiments. On the day of experiments, an approximately 200 μm wide scratch was formed using a 200 μL micropipette tip. […] Fixed points of each well (two points per well) were imaged using a Nikon Ti inverted microscope after 0, 2, and 4 hours after each treatment application. A total of 4 samples per condition was tested.

[1] = system: full thickness skin wounds of diabetic (Lepr^db) mice
Procedure: To further investigate the potential benefits of MNAs in treatment of diabetic and chronic wounds, an animal study was conducted on diabetic mice with cutaneous wounds. Homozygous mice for the diabetes spontaneous mutation (Lepr^db) become identifiably obese around 3 to 4 weeks of age. On day 10 to 14 elevations of plasma insulin begin and at four to eight weeks the blood sugar level elevates. With a delayed wound healing and an increased metabolic efficiency this mouse strain serves as a suitable model for chronic wound research.
On day one, all the mice received a square shaped 1 cm×1 cm full thickness skin cut on their dorsum. The animals were kept untreated for 5 days to allow the formation of wound crust. On days 5 and 7 post-surgery, animals received the planned treatment. T weight of each animal was recorded periodically, and wound areas were assessed every two days and photographed to monitor investigate wound closure (FIG. 5A).
Animal Studies: All animal procedures were reviewed and approved by the Institutional Animal Care and Use Committee (IACUC) of the University of Nebraska, Lincoln. Five weeks old B6.BKS(D)-Lepr^db/J mice were purchased from the Jackson Laboratory (Bar Harbor, Me.) weighted between 34-43 grams and accommodated in University of Nebraska, Life Science, animal facility for one week before the wound injury procedure. The animals were on special food diet during the entire research period.
In the day 1, all animals were anesthetized by 5% of isoflurane using anesthesia system, (VetFlo, Kent Scientific, Torrington, Conn.) via a nose cone. The hair on the dorsal region of animals was shaved using an electric razor. The skin was sterilized, and a full thickness skin cut of 1 cm×1 cm was created. The wounds were covered with a regular bandage. All mice placed back in separate cages individually after recovering from anesthesia. Animals were monitored for wound condition, vitals and wellbeing, and weight gain/loss trends daily.
To simulate the real wound conditions covered by crust and necrotic tissues, treatment start points were on day 5 by which a complete crust was formed on the wounds. […] In the topical delivery group, 100 μl of the solution was poured topically using a pipette on the top of the wound and the animals were let to sit for about 10 minutes, the wound was then covered by a fresh dressing. In MNAs delivery group, 100 μl of the solution was delivered using the MNAs and after 10 min, the microneedles were removed and the wound was covered by a fresh dressing. Animals of negative control received no treatment. […] Wounds were inspected every 2 days and the bandage was changed and a picture of the wound was taken using a digital camera.
On day 19, all animals were sacrificed using 20% CO2 volume displacement (flow rate cage volume/per minute) poisoning overdose and wound tissue was harvested and fixed in using 4% paraformaldehyde (PFA).
Histology: Frozen sections of haired skin were stored in a −80° C. ultralow freezer prior to sectioning on a cryotome. The sections of skin were cut 10 μm thick using a Thermo Scientific CryoStar NX50, routinely stained with hematoxylin and eosin on a Leica ST5020 H&E stainer, and coverslipped with a Leica CV5030 coverslipper. A veterinary anatomic pathologist who is board certified by the American College of Veterinary Pathologists performed all histological evaluations. Immunohistochemistry was done manually using Anti-CD31, rabbit host species (ab28364, Abcam, MA, USA).

[2] = system: full-thickness skin wounds of diabetic (Lepr^db) mice; details: for average healing rate: 100 μL of 500 ng/mL on days 5 and 7; for histological features at the central region of the wounds (H&E): day 19
Excerpt: On the day of surgery, mice received a full thickness (1×1 cm^2) skin wound on their dorsum. Mice with the full thickness (1×1 cm^2) wound on their dorsum were kept untreated for 5 days to allow eschar formation. Animals received treatment via three different delivery methods on days 5 and 7 post-surgery. […] Similar to in vitro experiments, to minimize the potential injury upon the delivery of therapeutics intradermally using LJI, a layer of agarose was placed between the wound and the nozzle.
Small Animal studies: Murine animal procedures were approved by the Institutional Animal Care and Use Committee (IACUC) of the University of Nebraska, Lincoln. Six to seven weeks old B6.BKS(D)-Lepr^db/J mice were obtained from the Jackson Laboratory (Bar Harbor, Me.). Since this mouse strain had congenic obesity, the animals were put on a special food diet. […] On day 0 of the study, 5% isoflurane was provided via a nose cone for anesthetization of animals and 3% isoflurane was used for maintaining sedation. The hair on the dorsal area was shaved, the skin was sterilized, and a full-thickness skin cut of 1 cm×1 cm was created. Buprenorphine SR was administered for pain relief at the time of surgery.
Animals received treatments on day 5 and day 7 post-surgery. […] To minimize the potential damage of solutions delivered by LJI to mice, an approximately 9 mm thick layer of 5% (w/v) of agarose was placed between the LJI nozzle and animal skin (FIG. 21).
Animals were inspected daily for wound closure, weight change and vitals. All animals were sacrificed on day 19 post-surgery using CO2 asphyxiation using a 30% oxygen displacement rate. The wound tissue was harvested and fixed in 10% neutral buffered formalin for further histological study.
Histological analysis: Sections of harvested skin were fixed by immersion in 10% neutral buffered formalin and routinely processed on a Tissue-Tek VIP 5 Tissue Processor. After processing, the tissues were embedded in paraffin blocks and were sectioned at 4 μm thick on a HM 355S Thermo Scientific microtome. Slides were deparaffinized and stained with H&E using a Leica ST5020 H&E stainer. Histological evaluation was conducted by a board certified veterinary anatomic blinded to the experiment.
Immunohistochemistry staining: In the murine study, formalin-fixed and paraffin-embedded biopsies were cut into 7 μm thick samples. Slides were deparaffinized, hydrated and washed using xylene and ethanol solutions. Subsequently, a heat mediated antigen retrieval step was performed at 95° C. for […]. The sections were blocked using 2.5% normal horse serum for 30 min at room temperature, and incubated with primary antibody (anti-CD31) at 4° C. overnight. Tissue sections were then treated with 3% hydrogen peroxide for 10 minutes at room temperature to block the peroxidase activity. Secondary antibody was then applied for 30 minutes at room temperature. To form a colored precipitate, DAB solution was incubated on the slides for 3-5 minutes. Finally, counterstaining was performed using hematoxylin for 30 seconds, and sections were dehydrated, washed, covered with mounting solution, and cover slipped.

[3] = system: full-thickness wounds on the dorsum of Yorkshire pigs; details: day 14
Procedure: To serve as controls, a group of wounds was treated with PBS for evaluating the potential effects of MNA administration, and a group was left untreated.
Large animal studies: The procedures for porcine animal studies were performed at Toxikon Corporation (Bedford, Mass.). The study protocol was approved by Toxikon's Institutional Animal Care and Use Committee, and conformed to federal animal laws and regulations. Three Yorkshire pigs (Animal Biotech Industries, Danboro, Pa.), 70-80 kg each, were anesthetized by intramuscular administration of 3.3 mg/kg ketamine, 2.2 mg/kg xylazine, 1.1 mg/kg acepromazine, and 0.02 mg/kg atropine. 0-5% isoflurane and oxygen were provided to maintain general anesthesia. Pain management was achieved by administration of a transdermal patch releasing 2-3 mkg/kg/h fentanyl per hour for 72 hours (Duragesic, Janssen). In addition, buprenorphine 0.01-0.03 mg/kg was delivered intramuscularly at the end of the surgery.
Circular full-thickness wounds (d=2.5 cm) were created on the dorsum of each pig. After marking the wounds in parallel paraspinal stripes, the outlines were tattooed with red ink using an electric tattoo marker (Spaulding & Rogers Mfg., Inc., Voorheesville, N.Y.). Full-thickness wounds down to fascia were excised. […]
For macroscopic wound evaluation, wound contraction was measured of the tattooed margins from macroscopic wound photos using Image J software (NIH, Bethesda, Md.). Open wound area (S1) and the area inside tattooed margin (S2) were measured and compared with original wound size on day 0 (S0=5 cm^2). The wound contraction and non-contracted wound closure contributions were calculated as 100×(S2−S0)/S0 and 100×(S2−S1)/S0, respectively.
In the swine experiment, the wounds were excised using a scalpel and fixed in formalin for immunohistochemical analysis. […] The wound sections were immunostained for von Willebrand Factor (vWF), smooth muscle actin (SMA), and CD3 based on manufacturers' protocols and the amount of positive staining was quantified in a blinded-manner using a light microscope.

[4] = topical delivery; 100 μL of 5 mg/mL; 3% agarose; 30 min
Excerpt: Agarose and other agar-based hydrogels have been widely used as skin models in previous studies^37,38. […] The intensity is also plotted quantitatively against the depth of penetration (FIG. 15C).

[5] = Release profile from hydrogel-filled MNAs; format: physicochemical; details: three concentrations, 3 mm and 2 mm MNAs, 72 hrs in PBS
Procedure: MNAs were filled with this BSA-containing alginate solution and Calcium Chloride (CaCl2) used for crosslinking following this protocol: first placing MNAs in 3% (w/v) agarose gel containing 2% (v/v) CaCl2 for few minutes and then pipetting additional 2% (v/v) CaCl2 over the tops to ensure complete crosslinking.
To perform a 3-day long release study, each needle array was placed in 0.5 mL of PBS. Samples were taken from solution at each time point over the course of 72 hrs and were stored in micro vials at room temperature over the duration of the release. For the final evaluation of protein release, 150 μL of each sample added to 96 well plates mixed with 150 μL of working reagent. Working reagent solution was made from a mixture of reagent A, B and C of BCA protein kit with the ratio of 24:24:1. Once reagents and samples were mixed, plates were incubated at 37° C. for an hour, and a plate reader (BioTech) used to read the absorption. Absorption values from the plate reader converted to concentrations using a calibration curve.
After filling the MNAs with the solution, PEGDA was photocrosslinked for approximately 30 seconds using a handheld UV light. A similar experimental protocol followed to study protein release from PEGDA over the course of 72 hours.

Q: With “vascular endothelial growth factor [VEGF]” as the molecule, how does the migration rate (HUVECs) read?
A: comparable to the positive control group

Q: What about the scratch closure (HUVECs; in 4 hours) of the same molecule?
A: 100%

Q: And the “wound closure / healing rate” value ([1]; MNA delivery, 100 μL of 500 ng/mL on days 5 and 7, day 19)?
A: 95%

Q: And the “wound closure compared with other groups” value ([1]; MNA delivery, day 17 and 19)?
A: significantly faster than both topical delivery and negative control groups

Q: What about the average wound size ([1]; MNA delivery, day 19) of the same molecule?
A: 0.04 cm^2

Q: What about the scarring ([1]; MNA delivery, end of the experiments) of the same molecule?
A: no evidence of scaring was observed

Q: And the “hair growth in the wound area” value ([1]; topical delivery)?
A: no hair growth was observed

Q: And the “wound closure rate compared to negative control” value ([1]; topical delivery)?
A: No significant difference was observed in the wound closure rate

Q: What about the average healing rate ([2]; LJI delivery, end of the study) of the same molecule?
A: 81%

Q: And the average healing rate ([2]; MNA delivery, end of the study)?
A: 96%

Q: And the average wound size ([2]; MNA delivery, end of the study)?
A: 0.04 cm^2

Q: What about the “histological features at the central region of the wounds (H&E)” value ([2]; TOP-administrated) of the same molecule?
A: contained a bed of granulation tissue with a partially healed center

Q: What about the “histological features at the central region of the wounds (H&E)” value ([2]; intradermal delivery (MNA, LJI)) of the same molecule?
A: more advanced wound healing characteristics

Q: And the “vascularization, IHC staining against CD31” value ([2]; intradermal delivery vs topical and controls, 19 days post-injury)?
A: Superior vascularization

Q: And the overall healing ([2]; intradermal delivery vs topical delivery and controls, 19 days after surgery)?
A: improved healing

Q: And the wound closure ([2]; topical delivery, end of the 20-day study)?
A: about 66%

Q: What about the “wound closure rate compared to negative control groups” value ([2]; topical delivery, vs no treatment or PBS via MNA and LJI) of the same molecule?
A: No significant difference was observed in the wound closure rate

Q: And the “expression of SMA+ myofibroblasts (IHC)” value ([3]; VEGF delivery)?
A: decreased the expression of SMA+ myofibroblasts

Q: What about the “vascularization (vWF expression)” value ([3]; intradermal (MNA) delivery) of the same molecule?
A: a significant enhancement in vascularization

Q: What about the “vascularization (vWF expression)” value ([3]; topical delivery) of the same molecule?
A: clearly less effective in inducing vascularization

Q: With CCN(CC)c1ccc2c(-c3ccccc3C(=O)O)c3ccc(=[N+](CC)CC)cc-3oc2c1.[Cl-] [rhodamine B] as the molecule, how does the “depth after which dye intensity promptly decreased” value [4] read?
A: ~1 mm

Q: And the “release profile from alginate-filled MNAs” value [5]?
A: curved burst release over the first 6 hours, with slower, more linear release over the next 3 days
